Test results taken from US6737383B1, “Herbicidal oxadiazolidines” (priority 1999, dated 2004).

Key:
[1] = system: smallflower flatsedge; assay: Test B flood test smallflower flatsedge; format: in vivo, Cyperus difformis
Procedure, shortened: (§1)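 Read-out is a visual response score from 0 (no effect) to 10 (complete control), assigned by comparison with untreated controls. Treatment was applied at the 2-leaf stage, and plants stayed in the greenhouse for twelve to sixteen days before scoring.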

[2] = system: wild oat; assay: Test B pre/postemergence wild oat; format: in vivo, Avena fatua
Procedure, shortened: (§2)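 Herbicidal effect was estimated by eye on a ten-point control scale after plants spent twelve to sixteen days in a greenhouse following soil or foliar treatment. Foliar sprays targeted plants at one to four leaves; all doses were formulated in a non-phytotoxic solvent with surfactant.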

[3] = system: surinam grass; assay: Test B pre/postemergence surinam grass; format: in vivo, Brachiaria decumbens
Procedure, shortened: as §2

[4] = system: cocklebur; assay: Test B pre/postemergence cocklebur; format: in vivo, Xanthium strumarium
Procedure, shortened: as §2

[5] = system: giant foxtail; assay: Test B pre/postemergence giant foxtail; format: in vivo, Setaria faberii
Procedure, shortened: as §2

[6] = system: bedstraw; assay: Test B pre/postemergence bedstraw; format: in vivo, Galium aparine
Procedure, shortened: as §2

[7] = system: bamyardgrass; assay: Test B flood test barnyardgrass; format: in vivo, Echinochloa crus-galli
Procedure, shortened: as §1

[8] = system: purple nutsedge; assay: Test B pre/postemergence purple nutsedge; format: in vivo, Cyperus rotundus
Procedure, shortened: as §2

[9] = system: crabgrass; assay: Test B pre/postemergence crabgrass; format: in vivo, Digitaria sanguinalis
Procedure, shortened: as §2

[10] = system: rice; assay: Test B flood test rice; format: in vivo, Oryza sativa
Procedure, shortened: as §1

[11] = system: blackgrass; assay: Test B pre/postemergence blackgrass; format: in vivo, Alopecurus myosuroides
Procedure, shortened: as §2

[12] = system: sugar beet; assay: Test B pre/postemergence sugar beet; format: in vivo, Beta vulgaris
Procedure, shortened: as §2

[13] = system: corn; assay: Test B pre/postemergence corn; format: in vivo, Zea mays
Procedure, shortened: as §2

[14] = system: soybean; assay: Test B pre/postemergence soybean; format: in vivo, Glycine max
Procedure, shortened: as §2

[15] = system: velvetleaf; assay: Test B pre/postemergence velvetleaf; format: in vivo, Abutilon theophrasti
Procedure, shortened: as §2

[16] = system: pigweed; assay: Test B pre/postemergence pigweed; format: in vivo, Amaranthus retroflexus
Procedure, shortened: as §2

[17] = Postemergence, Rate 62 g/ha, scale 0 to 10, 0 is no effect, 10 is complete control
[18] = Rate 125 g/ha, Postemergence section (flood test species), scale 0 to 10, 0 no effect, 10 complete control
[19] = Rate 250 g/ha, headed Pre-emergence (flood test species), scale 0 to 10 (0 no effect, 10 complete control)
[20] = Rate 500 g/ha, headed Pre-emergence (flood test species), scale 0 to 10 (0 no effect, 10 complete control)
[21] = Rate 2000 g/ha, Pre-emergence (as headed), scale 0 to 10
[22] = flood test, listed under Postemergence, Rate 250 g/ha, scale 0 to 10, 0 no effect, 10 complete control
[23] = Postemergence, Rate 250 g/ha, scale 0 to 10, 0 no effect, 10 complete control
[24] = Preemergence, Rate 62 g/ha, scale 0 to 10 (0 no effect, 10 complete control)
[25] = Preemergence, Rate 125 g/ha, scale 0 to 10 (0 no effect, 10 complete control)
[26] = Preemergence, Rate 250 g/ha, scale of 0 to 10 where 0 is no effect and 10 is complete control
[27] = Preemergence, Rate 500 g/ha, scale 0 (no effect) to 10 (complete control)
[28] = Rate 125 g/ha, Postemergence, scale 0 to 10, 0 no effect, 10 complete control
[29] = Rate 500 g/ha, Postemergence, scale 0 to 10, 0 no effect, 10 complete control
[30] = Rate 31 g/ha, Postemergence section (flood test species), scale 0 to 10
[31] = Rate 1000 g/ha, Pre-emergence (as headed), scale 0 to 10

SMILES: Cc1ccccc1Cn1c(=O)on(C(=O)N(c2ccc(F)cc2F)C(C)C)c1=O [Compound 87]
- S. Flatsedge plant response rating [1, 17]: 0
- S. Flatsedge plant response rating ([1]; Pre-emergence, Rate 1000 g/ha, scale 0 to 10 (0 no effect, 10 complete control)): 0
- S. Flatsedge plant response rating [1, 18]: 0
- S. Flatsedge plant response rating [1, 19]: 0
- Plant response rating, S. Flatsedge [1, 20]: 0
- S. Flatsedge plant response rating [1, 21]: 0
- S. Flatsedge plant response rating [1, 22]: 0
- Wild oats plant response rating [2, 17]: 0
- Wild oats plant response rating [2, 23]: 0
- Wild oats plant response rating [2, 24]: 0
- Plant response rating, Wild oats [2, 25]: 0
- Plant response rating, Wild oats [2, 26]: 4
- Wild oats plant response rating [2, 27]: 3
- Wild oats plant response rating [2, 28]: 0
- Wild oats plant response rating [2, 29]: 3
- B. signalgrass plant response rating [3, 17]: 0
- B. signalgrass plant response rating [3, 23]: 0
- B. signalgrass plant response rating [3, 24]: 0
- Plant response rating, B. signalgrass [3, 25]: 2
- Plant response rating, B. signalgrass [3, 26]: 4
- B. signalgrass plant response rating [3, 27]: 5
- B. signalgrass plant response rating [3, 28]: 0
- B. signalgrass plant response rating ([3]; Rate 500 g/ha, Postemergence, scale of 0 to 10 where 0 is no effect and 10 is complete control): 2
- Cocklebur plant response rating [4, 17]: 0
- Cocklebur plant response rating [4, 23]: 2
- Cocklebur plant response rating [4, 24]: 0
- Plant response rating, Cocklebur [4, 25]: 0
- Plant response rating, Cocklebur [4, 26]: 0
- Cocklebur plant response rating [4, 27]: 0
- Cocklebur plant response rating [4, 28]: 1
- Cocklebur plant response rating [4, 29]: 2
- Giant foxtail plant response rating [5, 17]: 0
- Giant foxtail plant response rating [5, 23]: 3
- Giant foxtail plant response rating [5, 24]: 8
- Plant response rating, Giant foxtail [5, 25]: 9
- Plant response rating, Giant foxtail [5, 26]: 10
- Giant foxtail plant response rating [5, 27]: 10
- Giant foxtail plant response rating [5, 28]: 2
- Giant foxtail plant response rating [5, 29]: 6
- Bedstraw plant response rating [6, 17]: 2
- Bedstraw plant response rating [6, 23]: 6
- Bedstraw plant response rating [6, 24]: 0
- Plant response rating, Bedstraw [6, 25]: 0
- Plant response rating, Bedstraw [6, 26]: 0
- Bedstraw plant response rating [6, 27]: 3
- Bedstraw plant response rating [6, 28]: 4
- Bedstraw plant response rating [6, 29]: 8
- Barnyardgrass plant response rating [7, 17]: 0
- Barnyardgrass plant response rating [7, 30]: 0
- Barnyardgrass plant response rating [7, 18]: 0
- Barnyardgrass plant response rating [7, 19]: 0
- Plant response rating, Barnyardgrass [7, 20]: 0
- Barnyardgrass plant response rating [7, 31]: 0
- Barnyardgrass plant response rating ([7]; Rate 2000 g/ha, Pre-emergence (as headed), scale 0 to 10, 0 no effect, 10 complete control): 0
- Barnyardgrass plant response rating [7, 22]: 0
- Nutsedge plant response rating [8, 17]: 0
- Nutsedge plant response rating [8, 23]: 0
- Nutsedge plant response rating [8, 24]: 0
- Plant response rating, Nutsedge [8, 25]: 0
- Plant response rating, Nutsedge [8, 26]: 0
- Nutsedge plant response rating [8, 27]: 0
- Nutsedge plant response rating [8, 28]: 0
- Nutsedge plant response rating [8, 29]: 0
- Crabgrass plant response rating [9, 17]: 2
- Crabgrass plant response rating [9, 23]: 5
- Crabgrass plant response rating [9, 24]: 5
- Plant response rating, Crabgrass [9, 25]: 8
- Plant response rating, Crabgrass [9, 26]: 10
- Crabgrass plant response rating [9, 27]: 10
- Crabgrass plant response rating [9, 28]: 3
- Crabgrass plant response rating [9, 29]: 9
- Rice plant response rating [10, 17]: 0
- Rice plant response rating [10, 30]: 0
- Rice plant response rating [10, 18]: 0
- Rice plant response rating [10, 19]: 0
- Plant response rating, Rice [10, 20]: 0
- Rice plant response rating [10, 31]: 0
- Rice plant response rating [10, 21]: 0
- Rice plant response rating [10, 22]: 0
- Blackgrass plant response rating [11, 17]: 0
- Blackgrass plant response rating [11, 23]: 1
- Blackgrass plant response rating [11, 24]: 2
- Plant response rating, Blackgrass [11, 25]: 3
- Plant response rating, Blackgrass [11, 26]: 5
- Blackgrass plant response rating [11, 27]: 7
- Blackgrass plant response rating [11, 28]: 0
- Blackgrass plant response rating [11, 29]: 4
- Sugarbeets plant response rating [12, 17]: 0
- Sugarbeets plant response rating [12, 23]: 3
- Sugarbeets plant response rating [12, 24]: 0
- Plant response rating, Sugarbeets [12, 25]: 0
- Plant response rating, Sugarbeets [12, 26]: 3
- Sugarbeets plant response rating [12, 27]: 9
- Sugarbeets plant response rating [12, 28]: 3
- Sugarbeets plant response rating [12, 29]: 8
- Corn plant response rating [13, 17]: 0
- Corn plant response rating [13, 23]: 0
- Corn plant response rating [13, 24]: 0
- Plant response rating, Corn [13, 25]: 0
- Plant response rating, Corn [13, 26]: 0
- Corn plant response rating [13, 27]: 2
- Corn plant response rating [13, 28]: 0
- Corn plant response rating [13, 29]: 2
- Soybean plant response rating [14, 17]: 2
- Soybean plant response rating [14, 23]: 2
- Soybean plant response rating [14, 24]: 0
- Plant response rating, Soybean [14, 25]: 0
- Plant response rating, Soybean [14, 26]: 0
- Soybean plant response rating [14, 27]: 4
- Soybean plant response rating [14, 28]: 2
- Soybean plant response rating [14, 29]: 5
- Velvetleaf plant response rating [15, 17]: 0
- Velvetleaf plant response rating [15, 23]: 0
- Velvetleaf plant response rating [15, 24]: 0
- Plant response rating, Velvetleaf [15, 25]: 0
- Plant response rating, Velvetleaf [15, 26]: 3
- Velvetleaf plant response rating [15, 27]: 0
- Velvetleaf plant response rating [15, 28]: 0
- Velvetleaf plant response rating [15, 29]: 1
- Redroot pigweed plant response rating [16, 17]: 0
- Redroot pigweed plant response rating [16, 23]: 5
- Redroot pigweed plant response rating [16, 24]: 4
- Plant response rating, Redroot pigweed [16, 25]: 4
- Plant response rating, Redroot pigweed [16, 26]: 8
- Redroot pigweed plant response rating [16, 27]: 10
- Redroot pigweed plant response rating [16, 28]: 0
- Redroot pigweed plant response rating [16, 29]: 2
